In ChEMBL document CHEMBL5365392, “Inhibitors of ABCG2-mediated multidrug resistance: Lead generation through computer-aided drug design” (Eur J Med Chem, 2023):
pEC50: −log10 of the molar value. Values joined by “and” are separate entries in the source; they are usually repeats but may differ in a detail not shown here. Equal values may be shown once.

Target: T1, Broad substrate specificity ATP-binding cassette transporter ABCG2 (Homo sapiens, UniProt Q9UNQ0)
T1 sequence (Q9UNQ0 whole entry): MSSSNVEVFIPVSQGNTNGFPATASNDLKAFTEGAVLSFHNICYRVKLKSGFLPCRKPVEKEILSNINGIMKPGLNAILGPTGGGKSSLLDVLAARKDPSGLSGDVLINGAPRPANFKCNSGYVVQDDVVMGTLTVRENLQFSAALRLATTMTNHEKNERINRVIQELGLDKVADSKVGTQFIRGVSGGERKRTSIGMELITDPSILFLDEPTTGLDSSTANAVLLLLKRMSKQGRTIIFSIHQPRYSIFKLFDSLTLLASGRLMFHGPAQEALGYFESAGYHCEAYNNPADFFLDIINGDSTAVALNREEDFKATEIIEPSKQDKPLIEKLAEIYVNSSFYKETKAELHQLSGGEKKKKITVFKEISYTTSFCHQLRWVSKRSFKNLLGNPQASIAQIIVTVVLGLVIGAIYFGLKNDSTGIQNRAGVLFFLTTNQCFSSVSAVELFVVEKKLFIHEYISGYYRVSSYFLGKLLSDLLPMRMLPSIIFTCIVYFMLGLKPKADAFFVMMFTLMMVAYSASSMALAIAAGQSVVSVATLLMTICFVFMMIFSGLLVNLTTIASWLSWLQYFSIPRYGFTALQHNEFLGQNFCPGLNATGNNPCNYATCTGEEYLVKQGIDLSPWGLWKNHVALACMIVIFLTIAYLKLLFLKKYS
Test: Inhibition of ABCG2 (unknown origin) expressed in HEK293 cells assessed as reduction in mitoxantrone accumulation incubated for 30 mins by flow cytometric method
Assay type: cell-based
Details: not given

Row | SMILES | pEC50
1 | C=CCOc1ccc(CNCCc2c[nH]c3ccccc23)cc1OCC | 6.89

Target: T1, Broad substrate specificity ATP-binding cassette transporter ABCG2
Test: Inhibition of ABCG2 (unknown origin)-mediated mitoxantrone efflux
Details: not given

Row | SMILES | pEC50
2 | CC1CC(=O)c2c3c(n(CCc4ccccc4)c2C1)-c1ccccc1C3=O (stereo not drawn) | 6.64
3 | O=C1CCCc2c1c1c(n2CCCc2ccccc2)-c2ccccc2C1=O | 6.10
4 | COc1ccc2[nH]cc(CCN(C)Cc3cc(=O)c4c(OCc5ccc(Br)cc5)cccc4o3)c2c1 | 5.74
5 | O=C1CCCc2c1c1c(n2CCc2ccccc2)-c2ccccc2C1=O | 6.37
6 | O=C1CC(c2ccccc2)Cc2c1c1c(n2CCc2ccccc2)-c2ccccc2C1=O (stereo not drawn) | 6.31
7 | COc1ccc2c3c([nH]c2c1)[C@H](C=C(C)C)N1C(=O)[C@@H]2CCCN2C(=O)[C@@H]1C3 [FUMITREMORGIN] | 5.70
8 | Cc1cc(=O)c2c3c(=O)c4ccccc4c3n(CCc3ccccc3)c2c1=O | 6.08
9 | O=C1CC(c2ccccc2)Cc2c1c1c(n2Cc2ccccc2)-c2ccccc2C1=O (stereo not drawn) | 6.02
10 | COc1cccc(CCn2c3c(c4c2-c2ccccc2C4=O)C(=O)CCC3)c1 | 6.51
11 | CC(C)n1c2c(c3c1-c1ccccc1C3=O)C(=O)C(Cc1ccccc1)(Cc1ccccc1)CC2 | 6.21
12 | O=c1cc(-c2ccccc2)c(=O)c2c1c1c(=O)c3ccccc3c1n2CCc1ccccc1 | 6.37

Target: T1, Broad substrate specificity ATP-binding cassette transporter ABCG2
Test: (§1) Inhibition of ABCG2 (unknown origin)-mediated mitoxantrone efflux at 5 uM relative to control
Details: 5 µM

Row | SMILES | inhibition (INH)
13 | COc1ccc2[nH]cc(CCN(C)Cc3cc(=O)c4c(OCc5ccc(Br)cc5)cccc4o3)c2c1 | 46% and 75%

Target: T2, ABCG2 (Homo sapiens, UniProt Q9UNQ0)
T2 sequence (Q9UNQ0 whole entry): T1 sequence (Q9UNQ0 whole entry)
Test: as §1
Details: probe mitoxantrone

Row | SMILES | inhibition at 5 µM [%]
14 | CC1CC(=O)c2c3c(n(CCc4ccccc4)c2C1)-c1ccccc1C3=O (stereo not drawn) | 100
15 | O=C1CCCc2c1c1c(n2CCCc2ccccc2)-c2ccccc2C1=O | 83
16 | O=C1CCCc2c1c1c(n2CCc2ccccc2)-c2ccccc2C1=O | 100
17 | O=C1CC(c2ccccc2)Cc2c1c1c(n2CCc2ccccc2)-c2ccccc2C1=O (stereo not drawn) | 83
18 | COc1ccc2c3c([nH]c2c1)[C@H](C=C(C)C)N1C(=O)[C@@H]2CCCN2C(=O)[C@@H]1C3 [FUMITREMORGIN] | 100
19 | O=c1cc(-c2ccccc2)c(=O)c2c1c1c(=O)c3ccccc3c1n2Cc1ccccc1 | 41
20 | Cc1cc(=O)c2c3c(=O)c4ccccc4c3n(CCc3ccccc3)c2c1=O | 99
21 | O=C1CC(c2ccccc2)Cc2c1c1c(n2Cc2ccccc2)-c2ccccc2C1=O (stereo not drawn) | 68
22 | COc1ccc2[nH]cc(CCNC(=O)c3cc(=O)c4c(OCc5ccc(Br)cc5)cccc4o3)c2c1 | 98
23 | COc1cccc(CCn2c3c(c4c2-c2ccccc2C4=O)C(=O)CCC3)c1 | 78
24 | O=c1ccc(=O)c2c1c1c(=O)c3ccccc3c1n2CCCc1ccccc1 | 33
25 | CC(C)n1c2c(c3c1-c1ccccc1C3=O)C(=O)C(Cc1ccccc1)(Cc1ccccc1)CC2 | 90
26 | COc1ccc2[nH]cc(CCN(C)C(=O)c3cc(=O)c4c(OCc5ccc(Br)cc5)cccc4o3)c2c1 | 101
27 | COc1ccc2c(CCNC(=O)c3cc(=O)c4c(OCc5ccc(Br)cc5)cccc4o3)c[nH]c2c1 | 97
28 | CN(CCc1cn(C)c2ccccc12)C(=O)c1cc(=O)c2c(OCc3ccc(Br)cc3)cccc2o1 | 88
29 | O=C(NCc1cn(CCc2c[nH]c3ccccc23)nn1)c1cc(=O)c2c(OCc3ccc(Br)cc3)cccc2o1 | 87
30 | Cn1cc(CCNC(=O)c2cc(=O)c3c(OCc4ccc(Br)cc4)cccc3o2)c2ccccc21 | 85
31 | O=c1ccc(=O)c2c1c1c(=O)c3ccccc3c1n2CCc1ccccc1 | 18
32 | O=c1cc(-c2ccccc2)c(=O)c2c1c1c(=O)c3ccccc3c1n2CCc1ccccc1 | 128
33 | CN(CCc1c[nH]c2ccccc12)C(=O)c1cc(=O)c2c(OCc3ccc(Br)cc3)cccc2o1 | 105
